This is an account of results in patent US9458140B2, “Furanone compounds as kinase inhibitors” (Eternity Bioscience Inc., priority 2013, dated 2016).

The IC50 is the concentration that inhibits the measured activity by half.

The target of experiment [1] is BRAF^V600E (Homo sapiens (Human), UniProt P15056, V600E). Kind of experiment: BRAF^V600E enzymatic activity assay (LanthaScreen kinase assay). The class given is biochemical. The conditions noted are these: LanthaScreen TR-FRET, ATP 2 μM, 60 minutes, room temperature; read-out: BRAF^V600E Lantha IC50. How it is done: BRAF^V600E enzymatic activity assay: The BRAF^V600E enzymatic assay was performed using a LanthaScreen kinase assay kit purchased from Life Technologies (Grand Island, N.Y.). The assay was conducted according to the procedure provided in the assay kit. […] The final reaction volume for each reaction was 10 μl. The reaction was stopped by addition of 10 μl of TR-FRET dilution buffer kinase supplemented with kinase quench buffer (10 mM final) and Tb-anti-pMAP2K1 (2 nM final). […] IC50 value was calculated using appropriate programs in GraphPad Prism by plotting the logarithm of the concentration versus percent inhibition.
(In general: TR-FRET usually uses a lanthanide donor and a delayed reading to cut background.)

Experiment [2] deals with A375 cells. The experiment can be described thus: Cell proliferation assay (CellTiter-Glo), A375 cell growth. The class given is cell-based. The conditions noted are these: 3-day treatment. How it is done:
Cell proliferation assay: A375, Colo-205, Calu-6, and SW-480 cells were purchased from American Type Culture Collection (USA). All cells were cultured in the recommended medium and serum concentration. Cells were maintained at 37° C. in a humidified atmosphere with 5% CO2. For cell proliferation assay, cells were seeded in 96-well pates at a density of 1,000 to 5,000 cells per well and cultured overnight at 37° C. in a medium supplemented with 5-10% FBS. On the next day, the test articles at various concentrations or vehicle control (1% DMSO) were added into cell culture. After 3-day treatment, the growth of cells was assayed by the CellTiter-Glo® Luminestceaent Cell Viability Assay (Promega). IC50 value was calculated using GraphPad Prism by plotting the logarithm of the concentration versus percent inhibition of cell growth.
In general terms: ATP-based viability assays read luminescence as a measure of living cells.

BRAF^V600E, sequence (P15056 whole entry V600E): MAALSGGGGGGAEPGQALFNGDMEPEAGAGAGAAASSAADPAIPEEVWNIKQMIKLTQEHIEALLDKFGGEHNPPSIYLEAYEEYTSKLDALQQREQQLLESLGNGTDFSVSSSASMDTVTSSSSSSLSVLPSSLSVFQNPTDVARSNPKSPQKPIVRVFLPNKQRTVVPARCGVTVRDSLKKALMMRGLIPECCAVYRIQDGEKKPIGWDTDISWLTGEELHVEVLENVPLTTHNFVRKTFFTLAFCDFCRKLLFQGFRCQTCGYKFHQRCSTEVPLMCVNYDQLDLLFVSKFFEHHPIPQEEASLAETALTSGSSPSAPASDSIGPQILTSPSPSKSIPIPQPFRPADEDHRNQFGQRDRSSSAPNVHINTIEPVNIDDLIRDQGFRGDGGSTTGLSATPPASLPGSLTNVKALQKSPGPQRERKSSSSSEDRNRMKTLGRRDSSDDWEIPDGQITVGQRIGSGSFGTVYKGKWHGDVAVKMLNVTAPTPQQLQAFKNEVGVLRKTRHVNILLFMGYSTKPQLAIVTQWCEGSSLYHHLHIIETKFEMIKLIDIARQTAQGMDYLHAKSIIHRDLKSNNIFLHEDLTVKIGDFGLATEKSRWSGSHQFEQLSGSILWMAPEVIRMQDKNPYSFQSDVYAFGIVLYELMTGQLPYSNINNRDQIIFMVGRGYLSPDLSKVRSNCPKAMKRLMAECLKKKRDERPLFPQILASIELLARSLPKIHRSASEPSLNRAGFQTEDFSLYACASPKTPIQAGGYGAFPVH

Turning to `COC(=O)N[C@@H](C)CNc1nccc(C2=C(c3cccc(NS(=O)(=O)c4c(F)cccc4F)c3F)C(=O)C(C)(C)O2)n1` [Example 2], the half-maximal inhibitory concentration (IC50) was 97 nM in experiment [1] and 630 nM in experiment [2] (Homo sapiens, A-375, 72 h).
The corresponding values for `CC1(C)OC(c2ccnc(NCCC#N)n2)=C(c2cccc(NS(=O)(=O)c3c(F)cccc3F)c2F)C1=O` [Example 3] are 13 nM and 470 nM.
Take `Nc1nccc(C2=C(c3cccc(NS(=O)(=O)c4c(F)cccc4F)c3F)C(=O)C3(CCCC3)O2)n1` [Example 4]: in experiment [2] (Homo sapiens, A-375, 72 h), inhibition was half-maximal at 510 nM (IC50).
Regarding `CC(C)CC1(C)OC(c2ccnc(N)n2)=C(c2cccc(NS(=O)(=O)c3c(F)cccc3F)c2F)C1=O` (stereo not drawn) [Example 5], the 50% inhibitory concentration (IC50) in experiment [1] was found to be 92 nM; in experiment [2] (Homo sapiens, A-375, 72 h) it was 2300 nM.
On to `CC(C)CC1(C)OC(c2ccnc(NCCC#N)n2)=C(c2cccc(NS(=O)(=O)c3c(F)cccc3F)c2F)C1=O` (stereo not drawn) [Example 6], for which the IC50 in experiment [1] was found to be 9.6 nM; in experiment [2] (Homo sapiens, A-375, 72 h) it was 12000 nM.
On to `COC(=O)N[C@@H](C)CNc1nccc(C2=C(c3cccc(NS(=O)(=O)c4c(F)cccc4F)c3F)C(=O)C(C)(CC(C)C)O2)n1` (stereo partly drawn) [Example 7], for which the IC50 was found to be 27 nM in experiment [1] and 870 nM in experiment [2] (Homo sapiens, A-375, 72 h).
As for `CC(C)CC1(C)OC(c2ccnc(NCc3nccs3)n2)=C(c2cccc(NS(=O)(=O)c3c(F)cccc3F)c2F)C1=O` (stereo not drawn) [Example 8], the IC50 in experiment [1] came to 260 nM; in experiment [2] (Homo sapiens, A-375, 72 h), 27000 nM.
Take `CC(C)CC1(C)OC(c2ccnc(NC[C@@H]3CCCN3)n2)=C(c2cccc(NS(=O)(=O)c3c(F)cccc3F)c2F)C1=O` (stereo partly drawn) [Example 9]: in experiment [1], the IC50 was 2000 nM.
The same measure, in the same setting: as for `CC(C)CC1(C)OC(c2ccnc(NCC3CCCO3)n2)=C(c2cccc(NS(=O)(=O)c3c(F)cccc3F)c2F)C1=O` (stereo not drawn) [Example 10], the figure is 750 nM.
Compound `CC1(C)OC(c2ccnc(N)n2)=C(c2cc(Cl)cc(NS(=O)(=O)c3c(F)cccc3F)c2F)C1=O` [Example 11] yielded an IC50 in experiment [2] (Homo sapiens, A-375, 72 h) of 18 nM.
Take `CC1(C)OC(c2ccnc(N)n2)=C(c2cc(Cl)cc(NS(=O)(=O)c3cc(F)ccc3F)c2F)C1=O` [Example 12]: the IC50 in experiment [1] came out at 0.6 nM; in experiment [2] (Homo sapiens, A-375, 72 h) it was 1.4 nM.
`CC1(C)OC(c2ccnc(N)n2)=C(c2cc(Cl)cc(NS(=O)(=O)c3ccc(F)cc3F)c2F)C1=O` [Example 13]: in experiment [2] (Homo sapiens, A-375, 72 h), half-maximal inhibition (IC50) required 350 nM.
On to `CC1(C)OC(c2ccnc(N)n2)=C(c2cc(Cl)cc(NS(=O)(=O)c3cccc(F)c3)c2F)C1=O` [Example 14], for which the IC50 came out at 1.2 nM in experiment [1] and 120 nM in experiment [2] (Homo sapiens, A-375, 72 h).
For `CC1(C)OC(c2ccnc(N)n2)=C(c2cc(Cl)cc(NS(=O)(=O)c3ccccc3F)c2F)C1=O` [Example 15], the IC50 in experiment [1] came to 2.5 nM; in experiment [2] (Homo sapiens, A-375, 72 h), 110 nM.
On to `CCCS(=O)(=O)Nc1cc(Cl)cc(C2=C(c3ccnc(N)n3)OC(C)(CC(C)C)C2=O)c1F` (stereo not drawn) [Example 16], for which the IC50 in experiment [1] was 70 nM; in experiment [2] (Homo sapiens, A-375, 72 h) it was 250 nM.
The corresponding values for `Nc1nccc(C2=C(c3cccc(NS(=O)(=O)c4c(F)cccc4F)c3Cl)C(=O)C3(CCCC3)O2)n1` [Example 17] are 3.7 nM and 150 nM.
As to `Nc1nccc(C2=C(c3cc(Cl)cc(NS(=O)(=O)c4c(F)cccc4F)c3Cl)C(=O)C3(CCCC3)O2)n1` [Example 18], the IC50 in experiment [1] came out at 2.4 nM; in experiment [2] (Homo sapiens, A-375, 72 h), 7 nM.
For `CC(C)CC1(C)OC(c2ccnc(N)n2)=C(c2cc(Cl)cc(NS(=O)(=O)c3c(F)cccc3F)c2F)C1=O` (stereo not drawn) [Example 19], the IC50 in experiment [1] turned out to be 27 nM; in experiment [2] (Homo sapiens, A-375, 72 h), 41 nM.
`CC(C)CC1(C)OC(c2ccnc(NCCC#N)n2)=C(c2cc(Cl)cc(NS(=O)(=O)c3c(F)cccc3F)c2F)C1=O` (stereo not drawn) [Example 20]: the IC50 worked out at 29 nM in experiment [1] and 160 nM in experiment [2] (Homo sapiens, A-375, 72 h).
Take `CC1(C)OC(c2ccnc(NCCC#N)n2)=C(c2cc(Cl)cc(NS(=O)(=O)c3c(F)cccc3F)c2F)C1=O` [Example 21]: the IC50 is 2.5 nM in experiment [1] and 200 nM in experiment [2] (Homo sapiens, A-375, 72 h).
Turning to `COC(=O)N[C@@H](C)CNc1nccc(C2=C(c3cc(Cl)cc(NS(=O)(=O)c4cc(F)ccc4F)c3F)C(=O)C(C)(C)O2)n1` [Example 22], the IC50 in experiment [1] amounted to 50 nM; in experiment [2] (Homo sapiens, A-375, 72 h), 180 nM.
On the same counts, the results for `CC1(C)OC(c2ccnc(NCCC#N)n2)=C(c2cc(Cl)cc(NS(=O)(=O)c3cc(F)ccc3F)c2F)C1=O` [Example 23] are 13 nM and 51 nM.
For `C[C@H](O)CNc1nccc(C2=C(c3cc(Cl)cc(NS(=O)(=O)c4cc(F)ccc4F)c3F)C(=O)C(C)(C)O2)n1` [Example 24], the concentration for half-maximal inhibition (IC50) in experiment [1] was found to be 24 nM; in experiment [2] (Homo sapiens, A-375, 72 h) it was 410 nM.
Turning to `CC1(C)OC(c2ccnc(NCCO)n2)=C(c2cc(Cl)cc(NS(=O)(=O)c3cc(F)ccc3F)c2F)C1=O` [Example 25], the IC50 in experiment [1] is 11 nM; in experiment [2] (Homo sapiens, A-375, 72 h), 160 nM.
Regarding `COCCNc1nccc(C2=C(c3cc(Cl)cc(NS(=O)(=O)c4cc(F)ccc4F)c3F)C(=O)C(C)(C)O2)n1` [Example 26], the IC50 in experiment [1] is 50 nM; in experiment [2] (Homo sapiens, A-375, 72 h), 260 nM.
On the same counts, the results for `CCNc1nccc(C2=C(c3cc(Cl)cc(NS(=O)(=O)c4cc(F)ccc4F)c3F)C(=O)C(C)(C)O2)n1` [Example 27] are 2.8 nM and 320 nM.
On to `Nc1nccc(C2=C(c3cc(Cl)cc(NS(=O)(=O)c4cc(F)ccc4F)c3F)C(=O)C3(CCCC3)O2)n1` [Example 28], for which the IC50 worked out at 2.6 nM in experiment [1] and 11 nM in experiment [2].
As for `Nc1nccc(C2=C(c3cc(Cl)cc(NS(=O)(=O)c4c(F)cccc4F)c3F)C(=O)C3(CCCC3)O2)n1` [Example 29], the IC50 is 1.3 nM in experiment [1] and 18 nM in experiment [2].
